Data on five molecules can be found in patent US11975105B2 (EMPROS PHARMA AB, priority 2014, dated 2024).

Read-outs that look alike come from different tables or passages of the source.

A short description of data set [1]: pH dependent degradation when solubility from a powder was investigated at 37° C. The following applies: FIG. 1A-B. It is filed as physicochemical.
The conditions of data set [2]: cited from earlier work.
For data set [3] the following is noted: cited from earlier work; for fraction of the dose absorbed: oral administration.
The conditions of data set [4]: cited from earlier work; for additional weight loss relative to placebo: at one year.
The conditions of data set [5]: cited from earlier work; for frequency of side effects, comparative: human, in vivo.

For the molecule `CCCCCCCCCCCC(CC1OC(=O)[C@H]1CCCCCC)OC(=O)C(CC(C)C)NC=O` (stereo in doubt) [orlistat, (S)—((S)-1-((2S,3S)-3-Hexyl-4-oxooxetan-2-yl)tridecan-2-yl) 2-formamido-4-methylpentanoate], the pH dependent degradation result in data set [1] is listed as “A similar tendency”. For the same molecule, in data set [2], the lipophilicity (log P) is recorded as 8.5 and the solubility in water entry is listed as “practically insoluble in water”. In data set [2] (listed as Orlistat), the “log P” value is reported as 8.4. Further, the plasma exposure in data set [3] (conventional oral dosage form) was less than 5 ng/mL. The “fraction of the dose absorbed” value in data set [3] is reported as less than 3%. For the same molecule, the “additional weight loss relative to placebo” value in data set [4] is recorded as approximately 3%. Besides, the relative weight loss in data set [4] (best case scenario, placebo 6%) is 10%. Besides, in data set [5] (clinical trials), the “patients complaining about GI side-effects (diarrhea, oily spottings, fecal urgency)” value is listed as not below 25%.
Turning to `CCCCCCCCCCCCCCCCOc1nc2ccc(C)cc2c(=O)o1` [cetilistat], the “frequency of side effects, comparative” value in data set [5] was “much lower frequency of side effects”.
Regarding `C[C@H]1CNCCc2ccc(Cl)cc21` [lorcaserin], in data set [4], the “additional weight loss relative to placebo” value was approximately 3%. Besides, in data set [4] (human, in vivo), the “decrease of body weight more than placebo” value is recorded as “about 3.2 kg” and the “decrease of body weight more than placebo, of initial body weight” value is given as “about 3.2%”.
As to `OCCN1C[C@H](O)[C@@H](O)[C@H](O)[C@H]1CO` [miglitol], in data set [3], the “fraction of the dose absorbed” value was 100%.
For the molecule `OCC(CO)N[C@H]1C[C@](O)(CO)[C@@H](O)[C@H](O)[C@H]1O` [voglibose], in data set [3], the “fraction of the dose absorbed” value is listed as “negligibly absorbed”. For the same molecule, the “frequency of side effects, comparative” value in data set [5] is listed as “lower frequency of GI side effects compared to acarbose”.

In general, log P refers to the decadic logarithm of the partition coefficient of the neutral form, usually between octanol and water.
